In patent US7569603B2, “Ester compound and its use in pest control” (Sumitomo Chemical Company, Limited, priority 2006, dated 2009):

These molecules were tested on Adult houseflies (assay: Knock-down test on adult houseflies by spraying oil solution in a cubic chamber). Details: 0.7 ml of 0.00625% oil solution sprayed into 70 cm cubic chamber; 5 male and 5 female adult houseflies; counted up to 10 minutes after spraying.
Type: in vivo, housefly (Musca domestica)
Protocol: A solution of 0.00625 part of the present compound (1) in 10 parts of dichloromethane was mixed with 89.99375 parts of deodorized kerosene to obtain a 0.00625% oil solution.
Adult houseflies (5 males and 5 females) were left in a cubic chamber (70 cm at each side). Into the chamber, 0.7 ml of 0.00625% oil solution of the present compound (1) prepared above was sprayed with a spray gun at a pressure of 8.8×10^4 Pa from a small window on the side of the chamber. Then, up to 10 minutes after spraying, the number of knocked-down insects was counted with time. From the results, a time required for knocking down 90% of the tested insects (KT90) was calculated.
In addition, the same test was carried out that 5-benzyl-3-furylmethyl (1R)-cis-2,2-dimethyl-3-((E)-3-ethoxy-3-oxo-1-propenyl)cyclopropanecarboxylate represented by the formula:
[drawing 6] (hereinafter, referred to as the comparative compound (A)), which is the compound described in GB-A-1413491 as compound P19/2; and 3-phenylbenzyl (1R)-cis-2,2-dimethyl-3-((E)-3-ethoxy-2-fluoro-3-oxo-1-propenyl)cyclopropanecarboxylate represented by the formula:
[drawing 7] (hereinafter, referred to as the comparative compound (B)), which is the compound described in U.S. Pat. No. 4,489,093 as example 12 were used as comparative compounds (repeated twice).

| Compound | KT90 (time required for knocking down 90% of the tested insects) [min] |
| --- | --- |
| CCOC(=O)/C=C/[C@H]1[C@@H](C(=O)OCc2coc(Cc3ccccc3)c2)C1(C)C [Comparative compound (A), 5-benzyl-3-furylmethyl (1R)-cis-2,2-dimethyl-3-((E)-3-ethoxy-3-oxo-1-propenyl)cyclopropanecarboxylate] | 8.0 |
| CCOC(=O)/C(F)=C\[C@H]1[C@@H](C(=O)OCc2cccc(-c3ccccc3)c2)C1(C)C [Comparative compound (B), 3-phenylbenzyl (1R)-cis-2,2-dimethyl-3-((E)-3-ethoxy-2-fluoro-3-oxo-1-propenyl)cyclopropanecarboxylate] | 8.9 |
| CCOC(=O)/C(F)=C\[C@H]1[C@@H](C(=O)OCc2coc(Cc3ccccc3)c2)C1(C)C [Present compound (1), 5-benzyl-3-furylmethyl (1R)-cis-2,2-dimethyl-3-((E)-3-ethoxy-2-fluoro-3-oxo-1-propenyl)cyclopropanecarboxylate] | 2.9 |
